Columns and labels:
FLT1 (VEGFR1) = FLT1 (VEGFR1) (Homo sapiens, UniProt P17948); experiment: Biochemical kinase assay FLT1; settings: cell free
Procedure: (§1) Test system: cell free assays; test items: IS181; concentrations tested: 1 ng/ml-5000 μg/ml; Kinases: a) Cell free assays: EGFR (ErbB1); FLT1 (VEGFR1); JAK1; JAK3 MAP2K1 (MEK1); PDGFRA (PDGFR alpha); PRKCA (PKC alpha); b) cell based assay: JAK-STAT.

[1] = system: Human endothelial cells (EA.hy 926); experiment: DNA fragmentation in endothelial cells; type: cell-based; settings: for % induction of DNA fragmentation: EA.hy926, 48 h
Procedure: Cell lines: Human endothelial cells (EA.Hy 926); test item: IS 181; treatment regimen: multiple additions (2)—48 hours; concentration range: 100 μg/ml to 5000 μg/ml (Duplicate wells); sera condition: medium containing 1% FBS. […] Cells were lysed and fragmented DNA was precipitated using PEG/NaCl solution. The fragmented DNA was incubated with 0.2 μg/ml of Hoechst 33258 dye and fluorescence was read at 360 ex/460 em. End point: Percentage induction of DNA fragmentation with respect to untreated. Positive control: anthralin. IS 181 led to induction of DNA fragmentation in Ea.hy.926 cells at all the concentrations tested. […] The overall effect of IS 181 on induction of DNA fragmentation with respect to untreated in Ea.hy.926 cells ranged from 15.09% to 64.15% (FIGS. 10A-10B and Table-10).

PDGFRA (PDGFR alpha) = PDGFRA (PDGFR alpha) (Homo sapiens, UniProt P16234); experiment: Biochemical kinase assay PDGFRA; settings: cell free, read-out: inhibition of PDGFRA (PDGRFR alpha)
Chain of PDGFRA (PDGFR alpha) (P16234 24-1089): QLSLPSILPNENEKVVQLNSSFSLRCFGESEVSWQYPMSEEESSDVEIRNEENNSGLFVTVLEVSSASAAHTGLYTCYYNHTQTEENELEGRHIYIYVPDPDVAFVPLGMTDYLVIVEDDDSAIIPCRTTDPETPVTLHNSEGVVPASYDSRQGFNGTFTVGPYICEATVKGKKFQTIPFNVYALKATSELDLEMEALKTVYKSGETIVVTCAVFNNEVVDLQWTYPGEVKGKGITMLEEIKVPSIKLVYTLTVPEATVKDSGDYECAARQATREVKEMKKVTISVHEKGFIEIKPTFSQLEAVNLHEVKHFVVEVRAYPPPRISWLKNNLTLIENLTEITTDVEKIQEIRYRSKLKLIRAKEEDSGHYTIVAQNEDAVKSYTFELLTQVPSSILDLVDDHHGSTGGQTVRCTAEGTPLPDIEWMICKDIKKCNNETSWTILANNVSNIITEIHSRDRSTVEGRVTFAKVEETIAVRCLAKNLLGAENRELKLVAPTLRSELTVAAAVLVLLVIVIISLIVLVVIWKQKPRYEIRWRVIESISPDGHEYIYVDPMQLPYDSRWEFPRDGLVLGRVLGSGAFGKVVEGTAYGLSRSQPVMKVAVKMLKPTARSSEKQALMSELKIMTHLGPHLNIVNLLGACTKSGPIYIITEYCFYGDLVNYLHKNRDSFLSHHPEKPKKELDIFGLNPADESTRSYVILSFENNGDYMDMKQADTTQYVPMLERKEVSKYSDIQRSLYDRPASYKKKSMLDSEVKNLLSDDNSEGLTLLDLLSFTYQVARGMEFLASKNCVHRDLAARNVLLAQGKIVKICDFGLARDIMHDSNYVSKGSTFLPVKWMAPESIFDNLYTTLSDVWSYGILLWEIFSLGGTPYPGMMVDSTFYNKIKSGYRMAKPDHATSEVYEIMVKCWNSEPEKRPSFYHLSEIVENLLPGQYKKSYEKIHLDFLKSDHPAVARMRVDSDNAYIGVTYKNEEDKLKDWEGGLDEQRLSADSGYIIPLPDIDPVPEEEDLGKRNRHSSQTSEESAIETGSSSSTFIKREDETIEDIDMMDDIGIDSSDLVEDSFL
Procedure: as §1

[2] = system: Cyclobutane Pyrimidine Dimers (CPD); experiment: UVB damage: cyclobutane pyrimidine dimers (ELISA); type: cell-based, human; settings: HaCaT
Procedure: Effect on Cyclobutane Pyrimidine Dimers (CPD); Effect on 8-oxo-G formation: Cell line: HaCaT (human keratinocytes); test items: IS 181; concentration range: 0.1-100 μg/ml (Duplicate wells). Method of estimation: Plating of cells; Sera starvation with 0.1% FBS (24 hours); treatment of cells with test items (24 hours); UVB damage (30 mJ/cm2)+Test items addition (24 hours); Cyclobutane pyrimidine dimers (CPD) and 8-oxo-G estimation using ELISA.

[3] = system: Human endothelial cells (EA.hy 926); experiment: Inhibition of FBS stimulated endothelial cell proliferation (MTT); type: cell-based; settings: for Absorbance (Mean ± SD) at 540 nm: EA.hy926, 10% FBS, 72 h
Procedure: Cell line: Human endothelial cells (EA.hy 926); test item: IS 181: treatment regimen: multiple additions (3)-72 hours; concentration range: 1 6 g/ml to 5000 6 g/ml (triplicate wells); sera condition: medium containing 10% FBS. […] The cells were then subjected to complete serum starvation. The cells were retreated with 10% FBS to stimulate cellular proliferation. […] Inhibition of FBS stimulated cell proliferation was measured using MTT assay. End point: percentage inhibition of FBS stimulated cell proliferation. Positive controls: anthralin; paclitaxel.

[4] = system: Imiquimod (IMQ) induced psoriasis; experiment: Imiquimod (IMQ) induced psoriasis model; type: in vivo, BALB/C mice
Procedure: The Experiment was carried out in Imiquimod (IMQ) induced psoriasis model in mice. […] […] There was a trend in animals treated with IS-181 through s.c. in ear thickness (life phase), punch biopsy, spleen weight and histopathology. […] Thus, […] In the view of this, it may be worth to explore the potency of the peptide for the diseases where TNFα playing central role in pathogenesis.

[5] = system: Human Keratinocytes (HaCaT); experiment: In vitro combination Anthralin and IS 181 (MTT); type: cell-based; settings: 72 h
Procedure: (§2) Percentage cytotoxicity was determined using MTT assay.

[6] = In vitro combination Anthralin and IS 181 (MTT); type: cell-based, Human; settings: human, HaCaT keratinocytes, read-out: percent inhibition of cell viability/cytotoxicity
Procedure: as §2

Chain of FLT1 (VEGFR1) (P17948 27-1338): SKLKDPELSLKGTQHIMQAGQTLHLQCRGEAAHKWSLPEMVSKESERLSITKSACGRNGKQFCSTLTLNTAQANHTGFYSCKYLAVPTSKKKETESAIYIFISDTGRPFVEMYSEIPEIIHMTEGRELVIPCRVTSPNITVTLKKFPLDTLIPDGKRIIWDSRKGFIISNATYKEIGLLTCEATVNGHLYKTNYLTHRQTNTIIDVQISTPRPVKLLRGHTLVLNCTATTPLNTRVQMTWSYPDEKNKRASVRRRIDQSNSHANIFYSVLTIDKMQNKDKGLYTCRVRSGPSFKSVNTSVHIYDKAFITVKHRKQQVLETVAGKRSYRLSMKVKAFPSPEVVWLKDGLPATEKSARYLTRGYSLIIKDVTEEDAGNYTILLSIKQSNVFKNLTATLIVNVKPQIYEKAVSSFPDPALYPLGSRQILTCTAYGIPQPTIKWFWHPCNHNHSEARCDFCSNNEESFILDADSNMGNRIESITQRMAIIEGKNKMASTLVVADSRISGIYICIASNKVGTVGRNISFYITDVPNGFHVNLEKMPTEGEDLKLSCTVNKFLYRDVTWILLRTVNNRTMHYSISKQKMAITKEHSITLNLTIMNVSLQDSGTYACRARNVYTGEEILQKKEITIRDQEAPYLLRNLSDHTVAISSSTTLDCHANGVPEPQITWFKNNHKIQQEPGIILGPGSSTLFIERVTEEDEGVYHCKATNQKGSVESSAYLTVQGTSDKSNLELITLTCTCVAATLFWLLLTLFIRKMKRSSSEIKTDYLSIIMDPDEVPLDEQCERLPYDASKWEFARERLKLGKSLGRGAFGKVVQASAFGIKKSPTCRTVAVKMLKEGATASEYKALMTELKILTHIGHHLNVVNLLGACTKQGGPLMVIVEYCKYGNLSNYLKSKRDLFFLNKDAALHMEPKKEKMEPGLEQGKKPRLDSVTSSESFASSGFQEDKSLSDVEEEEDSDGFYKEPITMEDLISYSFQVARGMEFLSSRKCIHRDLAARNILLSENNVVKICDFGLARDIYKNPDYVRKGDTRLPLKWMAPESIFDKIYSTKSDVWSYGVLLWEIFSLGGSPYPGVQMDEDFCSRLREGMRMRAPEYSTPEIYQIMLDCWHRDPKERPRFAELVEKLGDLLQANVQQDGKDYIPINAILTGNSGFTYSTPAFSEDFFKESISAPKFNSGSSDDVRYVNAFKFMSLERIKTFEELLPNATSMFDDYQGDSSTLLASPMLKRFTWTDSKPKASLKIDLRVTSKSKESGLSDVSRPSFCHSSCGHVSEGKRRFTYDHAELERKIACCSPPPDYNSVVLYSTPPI

**Q.** Which results are given for “H-WVQRVVEKFLK-OH [IS181, H-Trp-Val-Gln-Arg-Val-Val-Glu-Lys-Phe-Leu-Lys-OH]”?
**A.** inhibition at 50 µg/mL (FLT1 (VEGFR1); 50 μg/ml): 44%; inhibition at 100 µg/mL (FLT1 (VEGFR1); 100 μg/ml): -16%; inhibition at 250 µg/mL (FLT1 (VEGFR1); 250 μg/ml): -28%; inhibition at 500 µg/mL (FLT1 (VEGFR1); 500 μg/ml): -44%; inhibition at 1000 µg/mL (FLT1 (VEGFR1); 1000 μg/ml): -110%; % induction of DNA fragmentation ([1]; 100 μg/ml): 15.09%; % induction of DNA fragmentation ([1]; 500 μg/ml): 22.64%; % induction of DNA fragmentation ([1]; 1000 μg/ml): 64.15%; % induction of DNA fragmentation ([1]; 2000 μg/ml): 56.60%; % induction of DNA fragmentation ([1]; 5000 μg/ml): 22.64%; overall effect on induction of DNA fragmentation with respect to untreated ([1]; Ea.hy.926, 48 h, 100 μg/ml to 5000 μg/ml): 15.09% to 64.15%; inhibition at 50 µg/mL (PDGFRA (PDGFR alpha); 50 μg/ml): 8%; inhibition at 100 µg/mL (PDGFRA (PDGFR alpha); 100 μg/ml): -10%; inhibition at 250 µg/mL (PDGFRA (PDGFR alpha); 250 μg/ml): -26%; inhibition at 500 µg/mL (PDGFRA (PDGFR alpha); 500 μg/ml): -49%; inhibition at 1000 µg/mL (PDGFRA (PDGFR alpha); 1000 μg/ml): -81%; inhibition at 2000 µg/mL (PDGFRA (PDGFR alpha); 2000 μg/ml): -147%; decrease in CPD ([2]; UVB 30 mJ/cm2, 10 μg/ml): 28%; decrease in CPD ([2]; UVB 30 mJ/cm2, 100 μg/ml): 26%; inhibition of FBS stimulated cell proliferation ([3]; EA.hy926, 5 μg/ml to 1000 μg/ml): significant inhibition; cytotoxic effects ([3]; EA.hy926, 2000 μg/ml to 5000 μg/ml): cytotoxic effects; Absorbance (Mean ± SD) at 540 nm ([3]; 1 μg/ml): 0.48 ± 0.006; Absorbance (Mean ± SD) at 540 nm ([3]; 5 μg/ml): 0.45 ± 0.027; Absorbance (Mean ± SD) at 540 nm ([3]; 10 μg/ml): 0.46 ± 0.012; Absorbance (Mean ± SD) at 540 nm ([3]; 50 μg/ml): 0.41 ± 0.011; Absorbance (Mean ± SD) at 540 nm ([3]; 100 μg/ml): 0.41 ± 0.012; Absorbance (Mean ± SD) at 540 nm ([3]; 500 μg/ml): 0.33 ± 0.004; Absorbance (Mean ± SD) at 540 nm ([3]; 1000 μg/ml): 0.22 ± 0.008; Absorbance (Mean ± SD) at 540 nm ([3]; 2000 μg/ml): 0.09 ± 0.0003; histopathology ear thickness ([4]; 0.3 mg/kg, s.c.): maximum reduction in ear thickness; hyperkeratosis ([4]; 1.2 mg/kg i.m. and i.v.): reduction in hyperkeratosis; reduction in IL-23 (ear homogenate) compared to disease control ([4]; BALB/C mice, 0.3 mg/kg): 62.35%; reduction in TNFα (ear homogenate) compared to disease control ([4]; BALB/C mice, 0.3 mg/kg s.c.): 24.98%; reduction in TNFα (ear homogenate) compared to disease control ([4]; BALB/C mice, 1.2 mg/kg i.m.): 21.28%; dorsal skin thickness ([4]; across the groups except 0.6 mg/kg s.c. and 1.2 mg/kg i.m.): mild reduction in dorsal skin thickness, however which was not significant; punch biopsy weight ([4]; across the groups except 1.2 mg/kg, i.m.): mild reduction in punch biopsy weight, however which was not significant; IL-17A (ear homogenate) ([4]; across the treated groups): No changes in IL-17A; clinical score ([4]; across the treated groups): No substantial changes in clinical score; erythema index ([4]; across the treated groups): No changes in erythema index; ear thickness (life phase) compared to disease control ([4]; s.c.): mild reduction in ear thickness; edema compared to disease control ([4]; s.c. (1.2, 0.6 and 0.3 mg/kg)): reduction in edema; inflammatory cells infiltration compared to disease control ([4]; s.c. (1.2, 0.6 and 0.3 mg/kg) and 1.2 mg/kg i.v.): reduction in inflammatory cells infiltration; Rete peg proliferation ([4]; s.c. (at 1.2, 0.6 and 0.3, mg/kg)): reduction in Rete peg proliferation; spleen weight ([4]; s.c. route, 1.2 mg/kg): maximum reduction in spleen weight, however which was not significant; hyperkeratosis ([4]; s.c., 0.3 mg/kg): maximum effect; IC50 value of IS 181 ([5]; Anthralin 0 μM): 695.50 µg/mL; IC50 value of IS 181 ([5]; with Anthralin 0.01 μM): 872.80 µg/mL; IC50 value of IS 181 ([5]; with Anthralin 0.05 μM): 908.50 µg/mL; IC50 value of IS 181 ([5]; with Anthralin 0.1 μM): 677.60 µg/mL; cytotoxicity at 72 h, 10 μg/ml ([6]; IS 181 10 μg/ml alone): -10.4%; cytotoxicity at 72 h, 50 μg/ml ([6]; IS 181 50 μg/ml alone): -4.81%; cytotoxicity at 72 h, 100 μg/ml ([6]; IS 181 100 μg/ml alone): 8.16%; cytotoxicity at 72 h, 500 μg/ml ([6]; IS 181 500 μg/ml alone): 39.4%; cytotoxicity at 72 h, 1000 μg/ml ([6]; IS 181 1000 μg/ml alone): 62.4%; cytotoxicity at 72 h, 2000 μg/ml ([6]; IS 181 2000 μg/ml alone): 81.4%; cytotoxicity at 72 h, 5000 μg/ml ([6]; IS 181 5000 μg/ml alone): 94.2%
